Laboratory results as given in patent US20160052937A1, “Tetrahydroimidazo[1,5-d][1,4]oxazepine compound” (Eisai R&D Management Co., Ltd., priority 2014, published 2016).

What was measured:
[1] = biological target: T1, human metabotropic glutamate receptor 2 (mGluR2) (Homo sapiens, UniProt Q14416); assay: [35S]GTPγS binding assay (Affinity to mGluR2); assay type: biochemical; conditions: cell membrane fraction of HEK293 cells stably expressing human mGluR2; glutamic acid 10 μM
T1 construct: expressed in transfected cells; co-expressing human SLC1A3), cell membrane fraction
Protocol: (Preparation of Cell Membrane Fraction of HEK293 Cells Stably Expressing Human Metabotropic Glutamate Receptor 2 (mGluR2))
HEK293 cells stably expressing human mGluR2 and human glutamate transporter SLC1A3 were cultured in a Dulbecco's modified Eagle's medium with 10% fetal bovine serum (50 units/mL of penicillin, 50 μg/mL of streptomycin, 60 μg/mL of geneticin, 400 μg/mL of hygromycin B and 2 mM of glutamine) at 37° C. under 5% CO2. Confluent cell cultures were washed twice with PBS(−), and then scraped off with a cell scraper, and subjected to centrifugal separation at 4° C. and 1500 rpm for 5 minutes for collecting cells. The centrifuged sediment (cell pellet) was homogenized in a 20 mM HEPES buffer containing 10 mM EDTA (pH 7.4) by using sonicator and centrifuged at 4° C. and 1500×g for 30 minutes. The supernatant (soluble fraction) was subjected to the centrifugal separation at 4° C. and 40,000×g for 30 minutes, and thus, insoluble fraction was obtained. After additional centrifugally washing the obtained fraction with 20 mM HEPES buffer containing 10 mM EDTA (pH 7.4), the pellet was centrifugally suspended with a 20 mM HEPES buffer containing 0.1 mM EDTA, and the cell membrane fraction was obtained by the centrifugal separation at 4° C. and 40,000×g for 30 minutes. The thus obtained cell membrane fraction was suspended in a 20 mM HEPES buffer containing 0.1 mM EDTA in a protein concentration of 3 mg/mL, which was stored at −80° C.
([^35S]GTPγS binding assay)
The frozen cell membrane fraction prepared as described above was thawed before use, and the resultant was diluted with a buffer for a binding assay (final concentrations: 20 mM HEPES, 100 mM NaCl, 1 mM MgCl2, 3 μM GDP, 300 μg/mL saponin, 0.1% BSA). The compound of each example was added to a cell membrane fraction containing 1.8 to 3 μg/assay of membrane protein on a plate, followed by incubation at room temperature for 30 minutes. Thereafter, with glutamic acid (in a final concentration of 10 μM) added thereto, incubation was performed at room temperature for 15 minutes, and thereafter, [^35S]GTPγS (in a final concentration of 0.8 kBq) and 588 μg WGA-SPA beads were added thereto, followed by incubation at room temperature for 1 hour. After the incubation, the plate was subjected to the centrifugal separation at 2,500 rpm and room temperature, and then, membrane cell binding radioactivity was measured with a top count.
A [^35S]GTPγS binding amount obtained by performing the above-described reaction in the absence of glutamic acid was defined as nonspecific binding, and a difference from a [^35S]GTPγS binding amount obtained in the presence of glutamic acid was defined as specific binding. On the basis of ratios of inhibiting the specific binding at various concentrations of the compounds of the respective examples, inhibition curves were obtained. Concentrations of the compounds of the respective examples at which the specific [^35S]GTPγS binding amount was suppressed by 50% (IC50 values) were calculated on the basis of the inhibition curves and shown in Table 3.

[2] = test system: Long-Evans rats, cognitive impairment induced by scopolamine; assay: Novel object recognition (NOR) test in rats; assay type: in vivo, rat; conditions: oral; scopolamine hydrobromide 0.3 mg/kg i.p.; statistically significant difference in discrimination index vs scopolamine alone group
Protocol: Six-week old male Long-Evans rats were used for this test. For 2 days before starting the test, the rats were acclimated to experimental operations such as administration and a test device (that is, a black or gray plastic cage with a width of 40 cm, a depth of 30 cm and a height of 45 cm). Each test compound was dissolved in a 0.1 N hydrochloric acid to be orally administered. Thirty minutes after the administration, scopolamine hydrobromide was intraperitoneally administered at a 0.3 mg/kg dose, so as to induce cognitive impairment. After another 30 minutes, each rat was acclimated in the test device for 3 minutes, and thereafter, two blocks in the same shape were put in the test device as acquisition trial, and exploring time for each block was measured for 5 minutes. Two hours after the acquisition trial, the rat was acclimated in the test device for 3 minutes, and thereafter, the same block as those used in the acquisition trial and a new block in a different shape were put in the cage for retention trial. The exploring time for each block was measured for 3 minutes, and a ratio of the exploring time for the newly used block to the sum of the exploring times for the respective blocks was calculated as a discrimination index. The thus obtained discrimination indexes were compared among a group of rats to which a medium alone was administered (medium group), a group of rats to which scopolamine alone was administered (scopolamine alone group) and a group of rats to which both the test compound and scopolamine were administered, so as to evaluate the action of the test compound on the novel object recognition function (cognitive function) of the rats.
Each discrimination index was shown as an average and a standard error. The statistical significance between the medium group and the scopolamine alone group was analyzed by the independent t-test. The statistical significance between the scopolamine alone group and each sample group was analyzed by one-way analysis of variance and then by Dunnett's multiple comparison test. The significance level was set to 5% on both sides. […] The analysis was carried out by using Prism 5 for Windows for Japanese, ver. 5.03. A minimum effective dose at which a statistically significant difference was found between a group suffering from the cognitive impairment induced by scopolamine and a group treated with each compound is shown in Table 4.

T1 sequence (Q14416 19-872): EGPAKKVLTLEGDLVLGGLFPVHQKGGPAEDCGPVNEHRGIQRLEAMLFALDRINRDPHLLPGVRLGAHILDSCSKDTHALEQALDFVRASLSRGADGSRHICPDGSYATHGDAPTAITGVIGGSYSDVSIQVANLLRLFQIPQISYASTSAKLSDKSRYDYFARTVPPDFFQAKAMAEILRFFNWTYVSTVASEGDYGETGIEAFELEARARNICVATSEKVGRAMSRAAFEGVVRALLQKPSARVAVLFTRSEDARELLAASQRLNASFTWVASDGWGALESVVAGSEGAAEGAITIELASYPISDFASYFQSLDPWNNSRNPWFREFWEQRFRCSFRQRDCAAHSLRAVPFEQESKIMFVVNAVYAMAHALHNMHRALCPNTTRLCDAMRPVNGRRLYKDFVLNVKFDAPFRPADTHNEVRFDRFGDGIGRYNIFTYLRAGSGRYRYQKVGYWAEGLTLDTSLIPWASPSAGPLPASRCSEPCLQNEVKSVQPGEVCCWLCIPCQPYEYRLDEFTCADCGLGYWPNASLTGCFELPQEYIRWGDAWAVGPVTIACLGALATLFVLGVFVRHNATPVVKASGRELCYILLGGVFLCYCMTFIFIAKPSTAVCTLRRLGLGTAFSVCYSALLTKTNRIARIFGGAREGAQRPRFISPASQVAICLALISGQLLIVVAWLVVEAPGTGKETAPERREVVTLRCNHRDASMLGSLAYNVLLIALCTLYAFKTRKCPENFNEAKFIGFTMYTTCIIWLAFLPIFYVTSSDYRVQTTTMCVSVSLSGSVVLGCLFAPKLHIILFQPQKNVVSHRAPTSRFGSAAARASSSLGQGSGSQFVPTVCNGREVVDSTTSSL

| Structure (SMILES) | IC50 [1] | Minimum effective dose [2] |
| --- | --- | --- |
| CC(C)NS(=O)(=O)c1ccc(-c2nc(-c3ccc(F)cc3)n3c2CCO[C@H](C)C3)cc1 [Example 1, (R)-4-(3-(4-fluorophenyl)-6-methyl-5,6,8,9-tetrahydroimidazo[1,5-d][1,4]oxazepin-1-yl)-N-isopropylbenzenesulfonamide] | 3.7 nM | 1 mg/kg, p.o. |
| COc1ccc(-c2nc(-c3ccc(S(=O)(=O)NC(C)(C)C)cc3)c3n2C[C@@H](CF)OCC3)cc1 [Example 2, (S)—N-(tert-butyl)-4-(6-(fluoromethyl)-3-(4-methoxyphenyl)-5,6,8,9-tetrahydroimidazo[1,5-d][1,4]oxazepin-1-yl)benzenesulfonamide] | 3.1 nM | 3 mg/kg, p.o. |
| COc1ccc(-c2nc(-c3ccc(S(=O)(=O)NC4CCC4)cc3)c3n2C[C@@H](C)OCC3)cc1 [Example 3, (R)—N-cyclobutyl-4-(3-(4-methoxyphenyl)-6-methyl-5,6,8,9-tetrahydroimidazo[1,5-d][1,4]oxazepin-1-yl)benzenesulfonamide] | 5 nM | 1 mg/kg, p.o. |
| COc1ccc(-c2nc(-c3ccc(S(=O)(=O)NC(C)C)cc3)c3n2C[C@@H](C)OCC3)cc1 [Example 8, (R)—N-isopropyl-4-(3-(4-methoxyphenyl)-6-methyl-5,6,8,9-tetrahydroimidazo[1,5-d][1,4]oxazepin-1-yl)benzenesulfonamide] | 3.1 nM | 3 mg/kg, p.o. |

The next lines start with results.

| IC50 [1] | Structure (SMILES) | Minimum effective dose [2] |
| --- | --- | --- |
| 4.3 nM | COc1ccc(-c2nc(-c3ccc(S(=O)(=O)NC(C)C)cc3)c3n2C[C@@H](C)OCC3)cc1F [Example 62, (R)—N-isopropyl-4-(3-(3-fluoro-4-methoxyphenyl)-6-methyl-5,6,8,9-tetrahydroimidazo[1,5-d][1,4]oxazepin-1-yl)benzenesulfonamide] |  |
| 3.9 nM | COc1ccc(-c2nc(-c3ccc(S(=O)(=O)NC(C)(C)C)cc3)c3n2C[C@@H](C)OCC3)cc1F [Example 63] |  |
| 4.5 nM | Cc1ccc(-c2nc(-c3ccc(S(=O)(=O)NC(C)(C)C)cc3)c3n2C[C@@H](C)OCC3)cc1F [Example 64] |  |
| 6.7 nM | Cc1ccc(-c2nc(-c3ccc(S(=O)(=O)NC(C)C)cc3)c3n2C[C@@H](C)OCC3)cc1F [Example 65] |  |
| 10.9 nM | C[C@@H]1Cn2c(-c3ccc(OC(F)F)c(F)c3)nc(-c3ccc(S(=O)(=O)NC(C)(C)C)cc3)c2CCO1 [Example 66] |  |
